Measurements from patent US20090304755A1, “PHARMACEUTICAL FORMULATION OF LOSARTAN” (priority 2005, published 2009).

Assays:
[1] = Particle size by Malvern light scattering technique; format: physicochemical; conditions: particle size of losartan active agent
Text: “d (0.9)” denotes a particle size wherein 90% (volume) particles have diameter less than the specified diameter d.

[2] = Specific surface area by gas adsorption analyzer method (BET); format: physicochemical; conditions: losartan active agent
Text: The results of our investigations have shown that it is advantageous to use losartan, with a particle size d (0.9) less than 50μ measured by Malvern light scattering technique, and/or a specific particle specific surface area more than 0.6 m^2/g measured by the Gas adsorption analyzer method (BET).

[3] = oral administration; cited from earlier work

| SMILES | d (0.1) [1] | d (0.5) [1] | d (0.9) [1] | Specific Surface Area [2] | systemic bioavailability [3] |
| --- | --- | --- | --- | --- | --- |
| CCCCc1nc(Cl)c(CO)n1Cc1ccc(-c2ccccc2-c2nn[nH]n2)cc1 [A, Losartan Potassium] | d (0.1) = 0.869μ | d (0.5) = 10.077μ | d (0.9) = 21.382μ | Specific Surface Area = 0.7-0.8 m^2/g | – |
| CCCCc1nc(Cl)c(CO)n1Cc1ccc(-c2ccccc2-c2nn[nH]n2)cc1 [B, Losartan Potassium] | d (0.1) = 1.806μ | d (0.5) = 24.812μ | d (0.9) = 53.931μ | Specific Surface Area = 0.4-0.5 m^2/g | – |
| CCCCc1nc(Cl)c(CO)n1Cc1ccc(-c2ccccc2-c2nn[nH]n2)cc1 [losartan, Losartan] | – | – | – | – | approximately 33% |
